Six compounds from PubChem BioAssay AID1259407 (Chemical Carcinogenesis Research Information System (CCRIS), 2018) can be followed below.

SMILES strings stand for the structures. Active and inactive are the calls of the source. The rule behind the calls is not given here.

The series relates to CCRIS mutagenicity, Ames/micronucleus/aberration tests. As to the kind of experiment: CCRIS mutagenicity studies.
[1] abbreviates: Test System: AMES SALMONELLA TYPHIMURIUM, Strain/Indicator: TA98, Metabolic Activation: NONE, Method: STANDARD PLATE.
Where [2] appears, read: Test System: AMES SALMONELLA TYPHIMURIUM, Strain/Indicator: TA100, Metabolic Activation: NONE, Method: STANDARD PLATE.

Consider `Cc1ccc(N=Nc2c(O)ccc3ccccc23)c(C)c1`, for which the mutagenic call (Test System: AMES SALMONELLA TYPHIMURIUM, Strain/Indicator: TA98, Metabolic Activation: HAMSTER, LIVER, S-9, AROCLOR 1254 (5,20%), Method: PREINCUBATION) was “active; positive”; the mutagenic call (Test System: AMES SALMONELLA TYPHIMURIUM, Strain/Indicator: TA98, Metabolic Activation: HAMSTER, LIVER, S-9, AROCLOR 1254, Method: STANDARD PLATE) is “active; positive”; the mutagenic call (Test System: AMES SALMONELLA TYPHIMURIUM, Strain/Indicator: TA98, Metabolic Activation: HAMSTER, LIVER, S-9, Method: PREINCUBATION (PRIVAL METHOD)) is “active; positive”; the mutagenic call under setting [1] was “inactive; negative”; the mutagenic call (Test System: AMES SALMONELLA TYPHIMURIUM, Strain/Indicator: TA98, Metabolic Activation: RAT, BLADDER, S-9, PCB, Method: FLUCTUATION TEST) is “inactive; negative”; the mutagenic call (Test System: AMES SALMONELLA TYPHIMURIUM, Strain/Indicator: TA98, Metabolic Activation: RAT, LIVER, S-9, AROCLOR 1254, HAMSTER, LIVER, S-9, AROCLOR 1254, Method: STANDARD PLATE) is “active; positive”. Further, the mutagenic call runs as follows: (Test System: AMES SALMONELLA TYPHIMURIUM, Strain/Indicator: TA98, Metabolic Activation: RAT, LIVER, S-9, Method: STANDARD PLATE) “inactive; negative”; (Test System: AMES SALMONELLA TYPHIMURIUM, Strain/Indicator: TA100, Metabolic Activation: HAMSTER, LIVER, S-9, Method: PREINCUBATION (PRIVAL METHOD)) “active; positive”; under setting [2], “inactive; negative”; (Test System: AMES SALMONELLA TYPHIMURIUM, Strain/Indicator: TA100, Metabolic Activation: RAT, BLADDER, S-9, PCB, Method: FLUCTUATION TEST) “inactive; negative”; (Test System: AMES SALMONELLA TYPHIMURIUM, Strain/Indicator: TA100, Metabolic Activation: RAT, LIVER, S-9, Method: STANDARD PLATE) “inactive; negative”; (Test System: AMES SALMONELLA TYPHIMURIUM, Strain/Indicator: TA1538, Metabolic Activation: RAT, LIVER, S-9, AROCLOR 1254, HAMSTER, LIVER, S-9, AROCLOR 1254, Method: STANDARD PLATE) “active; positive”. In addition, the mutagenic call is “inactive; negative” (Test System: Mouse lymphoma, Strain/Indicator: L5178Y (tk+/tk-), Metabolic Activation: None, Method: Suspension/plate) and “inactive; negative” (Test System: Mouse lymphoma, Strain/Indicator: L5178Y (tk+/tk-), Metabolic Activation: Rat, Liver, S-9, Aroclor 1254, Method: Suspension/plate).
As for `C[C@H](CCC(=O)O)[C@H]1CC[C@H]2[C@@H]3C(=O)C[C@@H]4C[C@H](O)CC[C@]4(C)[C@H]3CC[C@]12C`, the mutagenic call was “inactive; negative” (Test System: AMES SALMONELLA TYPHIMURIUM, Strain/Indicator: TA98, Metabolic Activation: NONE, Method: FLUCTUATION TEST); “inactive; negative” (Test System: AMES SALMONELLA TYPHIMURIUM, Strain/Indicator: TA98, Metabolic Activation: NONE, Method: PREINCUBATION); “inactive; negative” (Test System: AMES SALMONELLA TYPHIMURIUM, Strain/Indicator: TA98, Metabolic Activation: RAT, LIVER, S-9, PCB, Method: PREINCUBATION); “inactive; negative” (Test System: AMES SALMONELLA TYPHIMURIUM, Strain/Indicator: TA100, Metabolic Activation: NONE, Method: FLUCTUATION TEST).
In the case of `O=C[C@H](NC(=O)N(CCCl)N=O)[C@@H](O)[C@H](O)[C@H](O)CO`, the mutagenic call (Test System: CHINESE HAMSTER V-79, Strain/Indicator: V-79/6-THIOGUANINE, Metabolic Activation: NONE, Method: STANDARD PLATE) is “active; positive”.
Regarding `CC(=O)c1cc2c(cc1C)C(C)(C)C(C)C2C(C)C` (stereo unspecified), the mutagenic call reads like this: (Test System: AMES SALMONELLA TYPHIMURIUM, Strain/Indicator: TA97, Metabolic Activation: NONE, Method: STANDARD PLATE) “inactive; negative”; (Test System: AMES SALMONELLA TYPHIMURIUM, Strain/Indicator: TA97, Metabolic Activation: RAT LIVER S-9, AROCLOR 1254, Method: STANDARD PLATE) “inactive; negative”; under setting [1], “inactive; negative”; (Test System: AMES SALMONELLA TYPHIMURIUM, Strain/Indicator: TA98, Metabolic Activation: RAT LIVER S-9, AROCLOR 1254, Method: STANDARD PLATE) “inactive; negative”; under setting [2], “inactive; negative”; (Test System: AMES SALMONELLA TYPHIMURIUM, Strain/Indicator: TA100, Metabolic Activation: RAT LIVER S-9, AROCLOR 1254, Method: STANDARD PLATE) “inactive; negative”. Further, the mutagenic call is “inactive; negative” (Test System: AMES SALMONELLA TYPHIMURIUM, Strain/Indicator: TA102, Metabolic Activation: NONE, Method: STANDARD PLATE) and “inactive; negative” (Test System: AMES SALMONELLA TYPHIMURIUM, Strain/Indicator: TA102, Metabolic Activation: RAT LIVER S-9, AROCLOR 1254, Method: STANDARD PLATE).
Regarding `CNc1ccc2ccc3ccc(O)cc3c2c1`, the mutagenic call runs as follows: (Test System: AMES SALMONELLA TYPHIMURIUM, Strain/Indicator: TA98, Metabolic Activation: RAT, LIVER, S-9, AROCLOR 1254, Method: STANDARD PLATE) “active; positive”; (Test System: AMES SALMONELLA TYPHIMURIUM, Strain/Indicator: TA98, Metabolic Activation: RAT, LIVER, S-9, AROCLOR, Method: STANDARD PLATE) “active; positive”.
On to `CC1CCC(C(C)C)C(OC(=O)c2ccccc2N)C1` (stereo unspecified), for which the mutagenic call by setting is: (Test System: AMES SALMONELLA TYPHIMURIUM, Strain/Indicator: TA98, Metabolic Activation: HAMSTER, LIVER, S-9, AROCLOR 1254 (10%), Method: STANDARD PLATE) “inactive; negative”; under setting [1], “inactive; negative”; (Test System: AMES SALMONELLA TYPHIMURIUM, Strain/Indicator: TA98, Metabolic Activation: RAT, LIVER, S-9, AROCLOR 1254 (10%), Method: STANDARD PLATE) “inactive; negative”; (Test System: AMES SALMONELLA TYPHIMURIUM, Strain/Indicator: TA100, Metabolic Activation: HAMSTER, LIVER, S-9, AROCLOR 1254 (10%), Method: STANDARD PLATE) “inactive; negative”; under setting [2], “inactive; negative”; (Test System: AMES SALMONELLA TYPHIMURIUM, Strain/Indicator: TA100, Metabolic Activation: RAT, LIVER, S-9, AROCLOR 1254 (10%), Method: STANDARD PLATE) “inactive; negative”. Besides, the mutagenic call is “inactive; negative” (Test System: AMES SALMONELLA TYPHIMURIUM, Strain/Indicator: TA1535, Metabolic Activation: HAMSTER, LIVER, S-9, AROCLOR 1254 (10%), Method: STANDARD PLATE); “inactive; negative” (Test System: AMES SALMONELLA TYPHIMURIUM, Strain/Indicator: TA1535, Metabolic Activation: NONE, Method: STANDARD PLATE); “inactive; negative” (Test System: AMES SALMONELLA TYPHIMURIUM, Strain/Indicator: TA1535, Metabolic Activation: RAT, LIVER, S-9, AROCLOR 1254 (10%), Method: STANDARD PLATE); “inactive; negative” (Test System: AMES SALMONELLA TYPHIMURIUM, Strain/Indicator: TA1537, Metabolic Activation: HAMSTER, LIVER, S-9, AROCLOR 1254 (10%), Method: STANDARD PLATE); “inactive; negative” (Test System: AMES SALMONELLA TYPHIMURIUM, Strain/Indicator: TA1537, Metabolic Activation: NONE, Method: STANDARD PLATE); “inactive; negative” (Test System: AMES SALMONELLA TYPHIMURIUM, Strain/Indicator: TA1537, Metabolic Activation: RAT, LIVER, S-9, AROCLOR 1254 (10%), Method: STANDARD PLATE). The mutagenic call (Test System: AMES SALMONELLA TYPHIMURIUM, Strain/Indicator: TA1538, Metabolic Activation: HAMSTER, LIVER, S-9, AROCLOR 1254 (10%), Method: STANDARD PLATE) was “inactive; negative”; the mutagenic call (Test System: AMES SALMONELLA TYPHIMURIUM, Strain/Indicator: TA1538, Metabolic Activation: NONE, Method: STANDARD PLATE) was “inactive; negative”; the mutagenic call (Test System: AMES SALMONELLA TYPHIMURIUM, Strain/Indicator: TA1538, Metabolic Activation: RAT, LIVER, S-9, AROCLOR 1254 (10%), Method: STANDARD PLATE) is “inactive; negative”; the mutagenic call (Test System: MOUSE LYMPHOMA, Strain/Indicator: L5178Y (TK+/TK-), Metabolic Activation: NONE, Method: SUSPENSION/PLATE) is “inactive; negative. reevaluation of results: negative”; the mutagenic call (Test System: MOUSE LYMPHOMA, Strain/Indicator: L5178Y (TK+/TK-), Metabolic Activation: RAT, LIVER, S-9, AROCLOR 1254, Method: SUSPENSION/PLATE) was “inactive; negative. reevaluation of results: equivocal”.
